Biological target: T1, human Werner helicase (WRN-BV08, Uniprot Q14191, amino acids 517-1235 with L1074F point mutation) (Homo sapiens, UniProt Q14191, L1074F)
T1 construct: Uniprot Q14191, amino acids 517-1235 with L1074F point mutation; TEV-cleavable 8×His (C, cleaved yes); made in house; host or cells: Sf9 insect cells (baculovirus)
Experiment: WRN (BV08) ADP-Glo Assay
Assay type: biochemical
Settings: 0.15 nM WRN, 5 μM ATP, 0.1 nM DNA duplex, 15 min preincubation, 60 min at 25° C., pH 7.5, 1% DMSO; read-out: ADP-Glo_hWRN_IC50
In short: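 WRN 0.15 nM + cpd, 15 min 25 °C; add 5 μM ATP / 0.1 nM annealed DNA duplex; 60 min 25 °C; ADP-Glo stop, RLU. Buffer 20 mM Bicine pH 7.5, 1 mM MgCl2, 10 mM KCl, 1 mM TCEP. IC50, 4-parameter fit.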

T1 sequence (Q14191 with tags, fused parts or gaps L1074F limits assumed): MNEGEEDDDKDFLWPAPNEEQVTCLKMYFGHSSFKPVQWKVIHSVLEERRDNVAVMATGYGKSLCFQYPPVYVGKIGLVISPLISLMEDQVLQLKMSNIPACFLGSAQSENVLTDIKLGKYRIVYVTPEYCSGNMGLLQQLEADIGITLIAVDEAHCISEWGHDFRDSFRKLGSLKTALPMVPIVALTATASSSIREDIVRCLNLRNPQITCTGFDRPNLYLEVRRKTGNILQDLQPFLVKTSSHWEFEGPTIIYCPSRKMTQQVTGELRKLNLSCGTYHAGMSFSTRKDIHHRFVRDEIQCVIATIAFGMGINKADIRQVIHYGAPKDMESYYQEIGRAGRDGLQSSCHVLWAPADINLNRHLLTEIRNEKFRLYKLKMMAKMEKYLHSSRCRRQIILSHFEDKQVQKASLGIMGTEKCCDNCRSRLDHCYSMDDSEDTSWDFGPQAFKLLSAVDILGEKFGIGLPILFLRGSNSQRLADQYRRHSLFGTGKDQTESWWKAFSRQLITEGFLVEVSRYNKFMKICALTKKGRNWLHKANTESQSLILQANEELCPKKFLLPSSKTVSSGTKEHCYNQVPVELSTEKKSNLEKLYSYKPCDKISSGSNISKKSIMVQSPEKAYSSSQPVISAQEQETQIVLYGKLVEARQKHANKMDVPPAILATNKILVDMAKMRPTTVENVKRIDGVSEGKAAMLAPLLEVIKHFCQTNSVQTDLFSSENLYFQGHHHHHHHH

IC50 [µM] | SMILES
< 0.5 | O=C(Cc1ccc(S(F)(F)(F)(F)F)cc1)N(Cc1nc(-c2nn[nH]n2)cs1)C1C=CS(=O)(=O)C1 (stereo not drawn) [I-626, N-(1,1-dioxo-2,3-dihydro-1lambda6-thiophen-3-yl)-2-[4-(pentafluoro-lambda6-sulfanyl)phenyl]-N-{[4-(2H-1,2,3,4-tetrazol-5-yl)-1,3-thiazol-2-yl]methyl}acetamide]
10 to 50 | O=C(C(c1ccc(-c2ccc(F)cc2)cc1)C1CC1)N(Cc1ccncc1)C1C=CS(=O)(=O)C1 (stereo not drawn) [I-677, 2-cyclopropyl-N-(1,1-dioxo-2,3-dihydro-1lambda6-thiophen-3-yl)-2-{4′-fluoro-[1,1′-biphenyl]-4-yl}-N-[(pyridin-4-yl)methyl]acetamide]
> 50 | O=C(Cc1ccc(C(F)(F)F)cn1)N(Cc1ccncc1)C1C=CS(=O)(=O)C1 (stereo not drawn) [I-389, N-(1,1-dioxo-2,3-dihydro-1lambda6-thiophen-3-yl)-N-[(pyridin-4-yl)methyl]-2-[5-(trifluoromethyl)pyridin-2-yl]acetamide]
10 to 50 | O=C(Cc1ccc(-n2cccc2)cc1)N(Cc1ccc(B(O)O)cc1)C1C=CS(=O)(=O)C1 (stereo not drawn) [I-321, (4-((2-(4-(1H-pyrrol-1-yl)phenyl)-N-(1,1-dioxido-2,3-dihydrothiophen-3-yl)acetamido)methyl)phenyl)boronic acid]
< 0.5 | O=C(Cn1cc(-c2ccc(F)c(F)c2)cn1)N(Cc1nc(C2CC2)cs1)C1C=CS(=O)(=O)C1 (stereo not drawn) [I-599, N-[(4-cyclopropyl-1,3-thiazol-2-yl)methyl]-2-[4-(3,4-difluorophenyl)-1H-pyrazol-1-yl]-N-(1,1-dioxo-2,3-dihydro-1lambda6-thiophen-3-yl)acetamide]
> 50 | O=C(CC1COc2ccccc2C1)N(Cc1ccncc1)C1C=CS(=O)(=O)C1 (stereo not drawn) [I-613, 2-(3,4-dihydro-2H-1-benzopyran-3-yl)-N-(1,1-dioxo-2,3-dihydro-1lambda6-thiophen-3-yl)-N-[(pyridin-4-yl)methyl]acetamide]
> 50 | COc1cc(CN(C(=O)C(OC2CS(=O)(=O)C2)c2ccc(-c3ccc(F)c(F)c3)cc2F)[C@@H]2C=CS(=O)(=O)C2)ccn1 (single isomer, unassigned) [I-834, (2R*)-2-[(1,1-dioxo-1lambda6-thietan-3-yl)oxy]-N-[(3R)-1,1-dioxo-2,3-dihydro-1lambda6-thiophen-3-yl]-N-[(2-methoxypyridin-4-yl)methyl]-2-{3,3′,4′-trifluoro-[1,1′-biphenyl]-4-yl}acetamide]

More lines, now with the values behind:

SMILES | IC50 [µM]
O=C(Cc1cc2ccccc2s1)N(Cc1ccncc1)C1C=CS(=O)(=O)C1 (stereo not drawn) [I-301, 2-(1-benzothiophen-2-yl)-N-(1,1-dioxo-2,3-dihydro-1lambda6-thiophen-3-yl)-N-[(pyridin-4-yl)methyl]acetamide] | 10 to 50
COc1cc(CN(C(=O)Cc2ccc(-n3cccc3C)cc2F)C2C=CS(=O)(=O)C2)ccn1 (single isomer, unassigned) [I-31] | < 0.5
O=C(Cc1ccc(C2CC2(F)F)cc1)N(Cc1ccncc1)C1C=CS(=O)(=O)C1 (stereo not drawn) [I-273, 2-[4-(2,2-difluorocyclopropyl)phenyl]-N-(1,1-dioxo-2,3-dihydro-1lambda6-thiophen-3-yl)-N-[(pyridin-4-yl)methyl]acetamide] | 5 to 10
CCOc1cc(CN(C(=O)Cc2ccc(-n3cccc3)cc2)C2C=CS(=O)(=O)C2)ccn1 (stereo not drawn) [I-141, N-(1,1-dioxo-2,3-dihydro-1lambda6-thiophen-3-yl)-N-[(2-ethoxypyridin-4-yl)methyl]-2-[4-(1H-pyrrol-1-yl)phenyl]acetamide] | 0.5 to 5
O=C(Cc1ccc(-n2cccc2)cc1)N(Cc1ccccc1)C1C=C(Br)S(=O)(=O)C1 (stereo not drawn) [I-269, 2-(4-(1H-pyrrol-1-yl)phenyl)-N-benzyl-N-(5-bromo-1,1-dioxido-2,3-dihydrothiophen-3-yl)acetamide] | 10 to 50

Source: patent publication US20260297070A1, “CYCLIC [COMPOUND LEFT OUT] WRN INHIBITORS” (Nimbus Wadjet, Inc., priority 2023, published 2026)
